According to patent US8853203B2, “Diazepinone derivatives” (Novartis AG, priority 2012, dated 2014):

Key:
human mGluR5a receptors = human mGluR5a receptors (Homo sapiens (Human), UniProt P41594); assay: inhibition of glutamate-induced elevation of intracellular calcium in L(tk-) cells expressing human mGluR5a; format: cell-based; conditions: for IC50: glutamate-induced intracellular calcium elevation, L(tk-) cells expressing human mGluR5a, read-out: mGluR5 IC50
Source text: Activity of compounds of the present invention was examined by determination to what extent the glutamate-induced elevation of the intracellular calcium concentration in L(tk-) cells expressing human mGluR5a receptors (see L. P. Daggett et al., Neuropharm. Vol. 34, pages 871-886, 1995) is inhibited by utilizing methods as described e.g. by L. P. Daggett et al., Neuropharm. Vol. 34, pages 871-886 (1995) and P. J. Flor et al., J. Neurochem. Vol. 67, pages 58-63 (1996).

human mGluR1 = human mGluR1 (Homo sapiens (Human), UniProt Q13255); assay: mGluR1 antagonism, L-glutamate induced intracellular calcium increase (FLIPR) in CHO cells stably expressing human mGluR1; format: cell-based; conditions: for IC50: L-glutamate induced intracellular calcium, CHO cells expressing human mGluR1, FLIPR
Source text: Activity of compounds of the present invention with respect to mGluR1 antagonism was examined by an assay based on measurements of L-glutamate induced intracellular calcium increases using a 96 well plate-based Fluorometric Imaging Plate Reader (FLIPR), and CHO cells stably expressing human mGluR1. L-glutamate induced robust calcium responses via human mGluR1 in a concentration-dependent manner and in the low micromolar range. The table below represents IC50 values of the inhibition of the glutamate-induced elevation of the intracellular calcium concentration.

Chain of human mGluR5a receptors (P41594 other isoform, or with tags, fused parts or gaps): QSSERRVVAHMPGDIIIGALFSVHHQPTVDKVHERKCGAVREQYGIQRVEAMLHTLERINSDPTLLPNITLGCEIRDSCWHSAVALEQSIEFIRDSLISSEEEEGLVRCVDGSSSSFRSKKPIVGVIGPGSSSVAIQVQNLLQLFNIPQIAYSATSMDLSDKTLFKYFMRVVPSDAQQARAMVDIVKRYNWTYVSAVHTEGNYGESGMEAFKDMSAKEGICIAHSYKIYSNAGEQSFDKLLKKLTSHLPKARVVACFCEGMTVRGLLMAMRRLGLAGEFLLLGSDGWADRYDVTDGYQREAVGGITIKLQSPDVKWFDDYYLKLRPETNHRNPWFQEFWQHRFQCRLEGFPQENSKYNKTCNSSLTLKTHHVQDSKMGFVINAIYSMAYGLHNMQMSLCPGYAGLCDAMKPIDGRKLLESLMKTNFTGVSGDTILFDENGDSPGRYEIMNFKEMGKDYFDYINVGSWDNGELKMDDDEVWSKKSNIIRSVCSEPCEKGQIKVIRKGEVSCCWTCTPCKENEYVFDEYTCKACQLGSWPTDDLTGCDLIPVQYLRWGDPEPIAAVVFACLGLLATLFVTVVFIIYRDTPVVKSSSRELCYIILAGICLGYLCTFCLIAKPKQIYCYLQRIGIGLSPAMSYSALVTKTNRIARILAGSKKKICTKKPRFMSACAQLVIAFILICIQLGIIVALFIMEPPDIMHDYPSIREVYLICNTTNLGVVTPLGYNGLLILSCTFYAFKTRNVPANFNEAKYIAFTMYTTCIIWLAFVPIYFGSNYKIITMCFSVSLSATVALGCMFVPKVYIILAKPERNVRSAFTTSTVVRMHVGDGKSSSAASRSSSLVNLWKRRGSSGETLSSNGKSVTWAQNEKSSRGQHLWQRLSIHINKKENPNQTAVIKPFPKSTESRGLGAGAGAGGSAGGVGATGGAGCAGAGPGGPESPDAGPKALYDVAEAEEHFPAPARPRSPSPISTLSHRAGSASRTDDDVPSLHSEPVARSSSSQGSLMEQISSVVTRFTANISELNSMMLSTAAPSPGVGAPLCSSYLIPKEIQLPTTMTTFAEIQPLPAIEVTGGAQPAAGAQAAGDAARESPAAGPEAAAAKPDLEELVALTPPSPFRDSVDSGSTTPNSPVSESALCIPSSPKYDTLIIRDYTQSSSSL
Chain of human mGluR1 (Q13255 19-1194): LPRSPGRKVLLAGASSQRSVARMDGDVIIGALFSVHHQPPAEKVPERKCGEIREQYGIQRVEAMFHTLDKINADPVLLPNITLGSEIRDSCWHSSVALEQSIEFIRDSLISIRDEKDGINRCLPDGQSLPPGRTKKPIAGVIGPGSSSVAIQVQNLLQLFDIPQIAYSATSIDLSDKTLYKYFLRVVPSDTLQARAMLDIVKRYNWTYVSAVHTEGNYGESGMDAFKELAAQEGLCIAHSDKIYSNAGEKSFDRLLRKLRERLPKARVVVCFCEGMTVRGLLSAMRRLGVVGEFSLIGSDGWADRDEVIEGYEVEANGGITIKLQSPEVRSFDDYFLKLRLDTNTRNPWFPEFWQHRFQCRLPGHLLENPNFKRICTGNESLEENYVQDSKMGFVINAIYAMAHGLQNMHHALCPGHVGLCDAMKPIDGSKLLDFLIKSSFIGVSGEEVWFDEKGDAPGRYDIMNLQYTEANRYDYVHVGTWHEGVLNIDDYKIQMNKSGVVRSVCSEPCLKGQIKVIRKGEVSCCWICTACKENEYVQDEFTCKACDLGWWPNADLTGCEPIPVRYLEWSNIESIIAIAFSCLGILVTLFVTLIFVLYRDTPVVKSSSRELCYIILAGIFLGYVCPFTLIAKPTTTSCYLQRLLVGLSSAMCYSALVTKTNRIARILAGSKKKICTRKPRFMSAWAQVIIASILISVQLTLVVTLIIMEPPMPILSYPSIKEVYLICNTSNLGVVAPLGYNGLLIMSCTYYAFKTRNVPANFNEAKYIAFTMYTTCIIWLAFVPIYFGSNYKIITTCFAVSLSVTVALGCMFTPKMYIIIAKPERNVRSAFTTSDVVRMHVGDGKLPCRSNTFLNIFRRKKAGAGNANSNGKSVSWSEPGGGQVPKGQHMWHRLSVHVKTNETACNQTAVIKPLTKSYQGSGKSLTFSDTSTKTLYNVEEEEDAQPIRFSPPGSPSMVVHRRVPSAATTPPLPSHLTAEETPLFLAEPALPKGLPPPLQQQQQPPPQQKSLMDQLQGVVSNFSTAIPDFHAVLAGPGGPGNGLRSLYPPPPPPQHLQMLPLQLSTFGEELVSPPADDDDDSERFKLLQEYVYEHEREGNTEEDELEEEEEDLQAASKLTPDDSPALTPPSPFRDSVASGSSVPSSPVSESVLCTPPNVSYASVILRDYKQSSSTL

SMILES | IC50 (human mGluR5a receptors) | IC50 (human mGluR1) | inhibition at 10 µM (human mGluR1; CHO) | inhibition at 10 µM (human mGluR5a receptors; LTK, read-out: mGluR5 % inhibition at 10 μM)
COc1cccc(C2=NCC(=O)N3CCc4c(cccc4N4CCOCC4)C3=C2)c1 [Example 41, 2-(3-methoxyphenyl)-9-morpholino-7,8-dihydro-[1,4]diazepino[7,1-a]isoquinolin-5(4H)-one] | 32 nM | > 10000 nM |  | 
CO[C@H](C)c1cn(C2=NCC(=O)N3CCc4c(cccc4C4CC4)C3=C2)cn1 [Example 123, (R)-9-cyclopropyl-2-(4-(1-methoxyethyl)-1H-imidazol-1-yl)-7,8-dihydro-[1,4]diazepino[7,1-a]isoquinolin-5(4H)-one] | 3 nM | 7000 nM |  | 
CCc1cccc2c1CCN1C(=O)CN=C(n3cnc(C(C)C)c3)C=C21 [Example 89, 9-ethyl-2-(4-isopropyl-1H-imidazol-1-yl)-7,8-dihydro-[1,4]diazepino[7,1-a]isoquinolin-5(4H)-one] | 28 nM | 650 nM |  | 
Cc1ncn(C2=NCC(=O)N3CCc4c(ccc(F)c4-c4cccnc4F)C3=C2)n1 [Example 99r, 10-fluoro-9-(2-fluoropyridin-3-yl)-2-(3-methyl-1H-1,2,4-triazol-1-yl)-7,8-dihydro-[1,4]diazepino[7,1-a]isoquinolin-5(4H)-one] | 136 nM | > 10000 nM |  | 
O=C1CN=C(n2cnc(-c3cnco3)c2)C=C2c3cccc(C4CC4)c3CCN12 [Example 123a, 9-cyclopropyl-2-(4-(oxazol-5-yl)-1H-imidazol-1-yl)-7,8-dihydro-[1,4]diazepino[7,1-a]isoquinolin-5(4H)-one] | 12 nM | > 2000 nM |  | 
COCCc1cn(C2=NCC(=O)N3CCc4c(cccc4-c4cscn4)C3=C2)cn1 [Example 76, 2-(4-(2-methoxyethyl)-1H-imidazol-1-yl)-9-(thiazol-4-yl)-7,8-dihydro-[1,4]diazepino[7,1-a]isoquinolin-5(4H)-one] | 34 nM | 4200 nM |  | 
O=C1CN=C(n2cnc(C(F)(F)F)c2)C=C2c3cccc(C4CC4)c3CCN12 [Example 123e, 9-cyclopropyl-2-(4-(trifluoromethyl)-1H-imidazol-1-yl)-7,8-dihydro-[1,4]diazepino[7,1-a]isoquinolin-5(4H)-one] | 56 nM | 1640 nM |  | 
COc1cccc2c1CCN1C(=O)CN=C(c3cccc(O)n3)C=C21 [Example 58, 9-methoxy-2-(6-oxo-1,6-dihydropyridin-2-yl)-7,8-dihydro-[1,4]diazepino[7,1-a]isoquinolin-5(4H)-one] |  | 8900 nM |  | 26%
COc1cccc(C2=NCC(=O)N3CCc4c(OC)cc(Cl)cc4C3=C2)c1 [Example 14, 11-chloro-9-methoxy-2-(3-methoxyphenyl)-7,8-dihydro-[1,4]diazepino[7,1-a]isoquinolin-5(4H)-one] | 550 nM | > 10000 nM |  | 
COCCOc1cccc(C2=NCC(=O)N3CCc4c(OC)cccc4C3=C2)c1 [Example 12, 9-methoxy-2-(3-(2-methoxyethoxy)phenyl)-7,8-dihydro-[1,4]diazepino[7,1-a]isoquinolin-5(4H)-one] | 46 nM | 1300 nM |  | 
COc1cccc(C2=NCC(=O)N3CCc4c(cccc4C(C)(C)O)C3=C2)c1 [Example 26, 9-(2-hydroxypropan-2-yl)-2-(3-methoxyphenyl)-7,8-dihydro-[1,4]diazepino[7,1-a]isoquinolin-5(4H)-one] | 235 nM | > 10000 nM |  | 

More lines, in order of falling IC50 (human mGluR5a receptors), values ahead:

IC50 (human mGluR5a receptors) | IC50 (human mGluR1) | inhibition at 10 µM (human mGluR1; CHO) | inhibition at 10 µM (human mGluR5a receptors; LTK, read-out: mGluR5 % inhibition at 10 μM) | SMILES
5500 nM |  | 1% |  | COc1cccc2c1CCN1C(=O)CN=C(c3cnc4c(c3)OCCN4C)C=C21 [Example 36a, 9-methoxy-2-(4-methyl-3,4-dihydro-2H-pyrido[3,2-b][1,4]oxazin-7-yl)-7,8-dihydro-[1,4]diazepino[7,1-a]isoquinolin-5(4H)-one]
3800 nM | 6900 nM |  |  | Cn1cnc(C2=NCC(=O)N3CCc4c(I)cccc4C3=C2)c1 [Example 36, 9-iodo-2-(1-methyl-1H-imidazol-4-yl)-7,8-dihydro-[1,4]diazepino[7,1-a]isoquinolin-5(4H)-one]
215 nM | > 10000 nM |  |  | O=C1CN=C(n2cnc(C3CC3)n2)C=C2c3cccc(-c4ccc(F)cn4)c3CCN12 [Example 133, 2-(3-cyclopropyl-1H-1,2,4-triazol-1-yl)-9-(5-fluoropyridin-2-yl)-7,8-dihydro-[1,4]diazepino[7,1-a]isoquinolin-5(4H)-one]
168 nM | 7330 nM |  |  | Cc1cn(C2=NCC(=O)N3CCc4c(cccc4-c4cnccn4)C3=C2)cn1 [Example 106b, 2-(4-methyl-1H-imidazol-1-yl)-9-(pyrazin-2-yl)-7,8-dihydro-[1,4]diazepino[7,1-a]isoquinolin-5(4H)-one]
115 nM | > 10000 nM |  |  | Cc1cn(C2=NCC(=O)N3CCc4c(cccc4-c4coc(C)n4)C3=C2)cn1 [Example 108c, 2-(4-methyl-1H-imidazol-1-yl)-9-(2-methyloxazol-4-yl)-7,8-dihydro-[1,4]diazepino[7,1-a]isoquinolin-5(4H)-one]
102 nM | 12000 nM |  |  | O=C1CN=C(n2cnc(C3CC3)c2)C=C2c3cccc(-c4cnc(F)nc4)c3CCN12 [Example 99f, 2-(4-cyclopropyl-1H-imidazol-1-yl)-9-(2-fluoropyrimidin-5-yl)-7,8-dihydro-[1,4]diazepino[7,1-a]isoquinolin-5(4H)-one]
56 nM | 1860 nM |  |  | CCOCc1cn(C2=NCC(=O)N3CCc4c(cccc4-c4nccs4)C3=C2)cn1 [Example 88j, 2-(4-(ethoxymethyl)-1H-imidazol-1-yl)-9-(thiazol-2-yl)-7,8-dihydro-[1,4]diazepino[7,1-a]isoquinolin-5(4H)-one]
39 nM | 1600 nM |  |  | C=Cc1cccc2c1CCN1C(=O)CN=C(n3cnc(COC)c3)C=C21 [Example 85, 2-(4-(methoxymethyl)-1H-imidazol-1-yl)-9-vinyl-7,8-dihydro-[1,4]diazepino[7,1-a]isoquinolin-5(4H)-one]
36 nM | > 10000 nM |  |  | Cc1cn(C2=NCC(=O)N3CCc4c(cccc4-c4ccc(F)nc4)C3=C2)cn1 [Example 81, 9-(6-fluoropyridin-3-yl)-2-(4-methyl-1H-imidazol-1-yl)-7,8-dihydro-[1,4]diazepino[7,1-a]isoquinolin-5(4H)-one]
35 nM | > 10000 nM |  |  | O=C1CN=C(c2ccoc2)C=C2c3cccc(-c4ccncc4)c3CCN12 [Example 51, 2-(furan-3-yl)-9-(pyridin-4-yl)-7,8-dihydro-[1,4]diazepino[7,1-a]isoquinolin-5(4H)-one]
27 nM | 3310 nM |  |  | O=C1CN=C(n2cnc(C(O)C3CC3)c2)C=C2c3cccc(C4CC4)c3CCN12 (stereo not drawn) [Example 130, 9-cyclopropyl-2-(4-(cyclopropyl(hydroxy)methyl)-1H-imidazol-1-yl)-7,8-dihydro-[1,4]diazepino[7,1-a]isoquinolin-5(4H)-one]
22 nM | 4900 nM |  |  | COc1cc(C2=NCC(=O)N3CCc4c(OC)cccc4C3=C2)ccn1 [Example 8, 9-methoxy-2-(2-methoxypyridin-4-yl)-7,8-dihydro-[1,4]diazepino[7,1-a]isoquinolin-5(4H)-one]
11 nM | > 10000 nM |  |  | COc1cc(C2=NCC(=O)N3CCc4c(cccc4-c4ccncc4F)C3=C2)ccn1 [Example 54, 9-(3-fluoropyridin-4-yl)-2-(2-methoxypyridin-4-yl)-7,8-dihydro-[1,4]diazepino[7,1-a]isoquinolin-5(4H)-one]
